{"source": "patent US20130303788A1", "about": "“METHOD OF PRODUCING BIPHENOLIC COMPOUND, NOVEL BIPHENYL COMPOUND AND SYNTHESIS METHOD THEREOF, AND PHARMACEUTICAL COMPOSITION FOR TREATING PARKINSON'S DISEASE” (Tzu Chi University, priority 2012, published 2013)", "key": {"[1]": {"system": "TH (Tyrosine Hydroxylase)", "assay": "TH expression level (TH immunohistochemistry) in 6-OHDA mouse model of PD", "format": "in vivo, NMRI mice", "experimental": "(§1) The respective NMRI mouse was deeply anaesthetized with thiopental (50 mg/kg, intraperitoneally). The respective NMRI mouse was perfused transcardially with a heparin solution (0.05% heparin in 0.1 M PBS), and was subsequently perfused with 100 mL of ice-cold fixative (4% paraformaldehyde in 0.1 M PBS). The brain of the respective NMRI mouse was removed and was postfixed in the same ice-cold fixative for 12 hours, followed by dehydration in 30% sucrose in 0.1 M PBS. The brain was frozen and was subjected to tissue slicing. Serial coronal sections (a thickness of 20 μm) were cut on a freezing microtome and were placed in PBS. The sections were later processed for free-floating TH or iNOS immunohistochemistry.\nThe sections were rinsed three times with PBS (30 minutes for each time), were treated with 3% H2O2/10% methanol in PBS for 30 minutes for quenching the endogenous peroxidase activity, and were rinsed three times with PBS. After preincubation with 0.5% normal goat serum (NGS)/0.2% Triton in PBS, the sections were incubated with a primary antibody (anti-TH antibody or anti-iNOS antibody, 1:5000, Novus Biologicals, Inc., Littleton, Colo., USA) in 0.5% NGS/PBS at 4° C. for 16-18 hours. After being rinsed three times with PBS, the sections were incubated with a biotinylated goat anti-rabbit IgG (1:200) in PBS for 1 hour. Subsequently, the sections were rinsed three times with PBS and were stained with 0.05% diaminobenzidine/0.03% H2O2 in PBS for 5 minutes. The respective section was placed on a gelatin-coated slide, dehydrated through ascending concentrations of alcohol, and covered with a slipcover for observation under a light microscope.\nThe obtained data were subjected to the statistical analysis as described in section 5 of General Procedures. TH expression level in the striatum was determined according to the method as described in section 4 of General Procedures.\nTH expression level in the striatum and the substantia nigra (SN), and iNOS expression level in the striatum were determined according to the method as described in section 4 of General Procedures on Day 21 after the injection of 6-OHDA or the vehicle.\nIn addition, the optical density regarding the lesioned and unlesioned sites in the striatum and SN of the NMRI mice (e.g., the sham operated control, the pathological control, and the NMRI mice treated with product 1) was determined from the obtained photomicrographs illustrating TH expression level via ImageJ software (National Institutes of Health). The relative optical density was calculated using the following formula:\nwhere J=relative optical density • K=optical density of the lesioned site • L=optical density of the unlesioned site"}, "[2]": {"system": "iNOS (Inducible Nitric Oxide Synthase)", "assay": "iNOS expression level (iNOS immunohistochemistry) in striatum of 6-OHDA mouse model of PD", "format": "in vivo, NMRI mice", "details": "Day 21 after 6-OHDA, FIG. 17", "experimental": "as §1\nThe sections were rinsed three times with PBS (30 minutes for each time), were treated with 3% H2O2/10% methanol in PBS for 30 minutes for quenching the endogenous peroxidase activity, and were rinsed three times with PBS. […]\nTH expression level in the striatum and the substantia nigra (SN), and iNOS expression level in the striatum were determined according to the method as described in section 4 of General Procedures on Day 21 after the injection of 6-OHDA or the vehicle. […]"}, "[3]": {"system": "mouse model of PD (6-OHDA unilateral striatal lesion)", "assay": "Beam walking test, incoordination induced by 6-OHDA", "format": "in vivo, NMRI mice", "experimental": "Product 1 was administered intraperitoneally to NMRI mice at a dose of 5 mg/kg. 30 minutes after the administration of product 1, the NMRI mice were subjected to 6-OHDA injection according to the method as described in section 2 of General Procedures.\nNMRI mice into which the vehicle was injected, and which were not treated with product 1 before the injection of the vehicle, served as a sham operated control. NMRI mice that were subjected to 6-OHDA injection and that were not treated with product 1 before the 6-OHDA injection served as a pathological control.\nThe NMRI mice were subjected to the beam walking test as described in the following subsection 3 on Day 1 and Day 7 after the injection of 6-OHDA or the vehicle. The obtained data were subjected to the statistical analysis as described in section 5 of General Procedures.\nNMRI mice were subjected to 6-OHDA injection according to the method as described in section 2 of General Procedures. On Day 7 after the 6-OHDA injection, product 1 was administered intraperitoneally to the NMRI mice at a dose of 5 mg/kg respectively for 7 and 14 consecutive days.\nNMRI mice into which a vehicle (saline containing 0.02% ascorbic acid) was injected (generally according to the method as described in section 2 of General Procedures, except that 6-OHDA was not injected), and which were not treated with product 1 after the injection of the vehicle, served as a sham operated control. NMRI mice that were subjected to 6-OHDA injection and that were not treated with product 1 after the 6-OHDA injection served as a pathological control.\nThe NMRI mice were subjected to the beam walking test as described in the following subsection 3 on Day 14 or Day 21 after the injection of 6-OHDA or the vehicle. The obtained data were subjected to the statistical analysis as described in section 5 of General Procedures.\nA beam walking test was conducted under proper conditions, e.g., silence and illumination, so as to evaluate coordination of the respective NMRI mouse. The respective NMRI mouse was placed at a starting point of a beam having a height of 50 cm from a supporting surface, equipped with an escape plateform at each end. […] Before the beam walking test, the respective mouse was trained to walk through the beam for 3 days so that the escape latency thereof was less than 20 seconds. The total travel distance was measured."}, "inflammatory pain": {"system": "inflammatory pain", "details": "Lin Yi-Ruu et al. (2007); cited from earlier work"}}, "data": [{"smiles": "C=CCc1ccc(O)c(-c2ccc(O)c(CC=C)c2)c1", "note": "[product 1, 5,3′-Diallyl-biphenyl-2,4′-diol]", "values": [{"measurement": "TH expression level in right (lesioned) striatum vs pathological control, subchronic treatment", "setting": "[1]; 5 mg/kg i.p. for 14 consecutive days after 6-OHDA injection, FIG. 12", "result": "significantly higher TH expression level"}, {"measurement": "loss of TH-ir fibers in the striatum, subchronic post-treatment", "setting": "[1]; i.p. 14 consecutive days starting Day 7, Day 21 after 6-OHDA, FIGS. 14, 15(A), 16", "result": "significantly alleviated the loss of TH-ir fibers"}, {"measurement": "loss of TH-ir fibers in the substantia nigra (SN), subchronic post-treatment", "setting": "[1]; i.p. 14 consecutive days starting Day 7, Day 21 after 6-OHDA, FIGS. 14, 15(B), 16", "result": "significantly alleviated the loss of TH-ir fibers"}, {"measurement": "iNOS expression in the striatum, subchronic post-treatment", "setting": "[2]; 0.5, 1, 5 mg/kg i.p. 14 consecutive days starting Day 7", "result": "significantly inhibited iNOS expression in the striatum"}, {"measurement": "relationship between dose and number of iNOS-positive cells in the striatum", "setting": "[2]; 0.5, 1, 5 mg/kg i.p.", "result": "dose-dependent relationship"}, {"measurement": "14-day post-treatment compared to 7-day post-treatment, motor incoordination", "setting": "[3]; 5 mg/kg i.p.", "result": "more effectively alleviating the motor incoordination"}, {"measurement": "duration of the effect of the pretreatment on motor incoordination", "setting": "[3]; 5 mg/kg i.p. 30 minutes before 6-OHDA", "result": "at least 7 days"}, {"measurement": "motor incoordination (beam walking), pretreatment", "setting": "[3]; 5 mg/kg i.p. 30 minutes before 6-OHDA, Day 1 and Day 7 after 6-OHDA, FIGS. 18(A), 18(B)", "result": "significantly alleviated the motor incoordination"}, {"measurement": "motor incoordination (beam walking), 7-day post-treatment", "setting": "[3]; 5 mg/kg i.p. for 7 days starting Day 7 after 6-OHDA, tested Day 14, FIG. 19", "result": "significantly alleviated the motor incoordination"}, {"measurement": "motor incoordination (beam walking), 14-day post-treatment", "setting": "[3]; 5 mg/kg i.p. for 14 days starting Day 7 after 6-OHDA, tested Day 21, FIG. 19", "result": "significantly alleviated the motor incoordination"}, {"measurement": "alleviation of inflammatory pain in an animal model", "setting": "inflammatory pain", "result": "effective in alleviating inflammatory pain"}]}]}
